Experiment: cn = amount concentration of the nth substance listed, in mol/dm3
Settings: 101 kPa, Liquid, Direct current cell with electrodes

CCCCCCCCCCCC[N+](CC)(CC)CC.[Br-] [dodecyltriethylammonium bromide] + O
electrical conductivity [S/m]
Settings | 288.15 K | 293.15 K | 298.15 K | 303.15 K | 308.15 K | 313.15 K | 318.15 K
c1 = 0.001316 | 0.0105 | 0.0119 | 0.0132 | 0.0146 | 0.01605 | 0.0176 | 0.019
c1 = 0.002597 | 0.02 | 0.0226 | 0.0252 | 0.028 | 0.0306 | 0.0335 | 0.0363
c1 = 0.003846 | 0.0289 | 0.0327 | 0.0365 | 0.0406 | 0.0443 | 0.0486 | 0.0526
c1 = 0.005063 | 0.0374 | 0.0423 | 0.0473 | 0.0526 | 0.0573 | 0.0631 | 0.0682
c1 = 0.00625 | 0.0456 | 0.0516 | 0.0576 | 0.0641 | 0.0698 | 0.0768 | 0.0831
c1 = 0.007407 | 0.053 | 0.0604 | 0.0676 | 0.0752 | 0.0819 | 0.09 | 0.0976
c1 = 0.008536 | 0.0609 | 0.0689 | 0.0771 | 0.0859 | 0.0934 | 0.1028 | 0.1114
c1 = 0.009638 | 0.0681 | 0.077 | 0.0862 | 0.0962 | 0.1047 | 0.115 | 0.1247
c1 = 0.01071 | 0.0751 | 0.085 | 0.095 | 0.106 | 0.116 | 0.127 | 0.137
c1 = 0.01177 | 0.0818 | 0.0926 | 0.1035 | 0.115 | 0.126 | 0.139 | 0.15
c1 = 0.01279 | 0.0884 | 0.1 | 0.1116 | 0.1245 | 0.136 | 0.149 | 0.1607
c1 = 0.01379 | 0.0946 | 0.107 | 0.119 | 0.1325 | 0.1445 | 0.159 | 0.173
c1 = 0.01477 | 0.0997 | 0.1119 | 0.1243 | 0.138 | 0.1513 | 0.167 | 0.1822
c1 = 0.01573 | 0.1033 | 0.115 | 0.128 | 0.1426 | 0.156 | 0.1726 | 0.189
c1 = 0.01667 | 0.106 | 0.118 | 0.1315 | 0.146 | 0.1607 | 0.178 | 0.196
c1 = 0.01758 | 0.108 | 0.121 | 0.1345 | 0.15 | 0.165 | 0.1821 | 0.2
c1 = 0.01848 | 0.1105 | 0.1235 | 0.137 | 0.1528 | 0.169 | 0.186 | 0.206
c1 = 0.01936 | 0.1125 | 0.126 | 0.1401 | 0.156 | 0.1721 | 0.1911 | 0.211
c1 = 0.02021 | 0.1144 | 0.128 | 0.1427 | 0.159 | 0.175 | 0.195 | 0.215
c1 = 0.02105 | 0.116 | 0.1303 | 0.145 | 0.1616 | 0.179 | 0.199 | 0.22
c1 = 0.02188 | 0.118 | 0.1324 | 0.148 | 0.1645 | 0.1821 | 0.202 | 0.224
c1 = 0.02268 | 0.12 | 0.1344 | 0.15 | 0.167 | 0.185 | 0.206 | 0.228
c1 = 0.02347 | 0.1215 | 0.136 | 0.1524 | 0.17 | 0.189 | 0.209 | 0.232
c1 = 0.02424 | 0.1231 | 0.138 | 0.1546 | 0.1723 | 0.1916 | 0.213 | 0.236
c1 = 0.025 | 0.125 | 0.1403 | 0.157 | 0.175 | 0.1946 | 0.216 | 0.24

CCCCCCCCCCCC[N+](CCC)(CCC)CCC.[Br-] [dodecyltripropylammonium bromide] + O
electrical conductivity [S/m]
Settings | 288.15 K | 293.15 K | 298.15 K | 303.15 K | 308.15 K | 313.15 K | 318.15 K
c1 = 0.001055 | 0.00819 | 0.00909 | 0.01006 | 0.01131 | 0.01244 | 0.0137 | 0.0147
c1 = 0.002089 | 0.0153 | 0.01734 | 0.01942 | 0.0217 | 0.0238 | 0.0261 | 0.0282
c1 = 0.003101 | 0.0222 | 0.025 | 0.0282 | 0.0316 | 0.0345 | 0.038 | 0.0412
c1 = 0.004092 | 0.0285 | 0.0326 | 0.0367 | 0.041 | 0.0449 | 0.0496 | 0.0538
c1 = 0.005063 | 0.0346 | 0.0398 | 0.0448 | 0.0501 | 0.0546 | 0.0605 | 0.0657
c1 = 0.006015 | 0.0405 | 0.0467 | 0.0527 | 0.059 | 0.0643 | 0.0712 | 0.0774
c1 = 0.006948 | 0.0461 | 0.0533 | 0.0599 | 0.0675 | 0.0741 | 0.0816 | 0.0886
c1 = 0.007862 | 0.0516 | 0.0594 | 0.0674 | 0.0757 | 0.083 | 0.0912 | 0.0991
c1 = 0.008759 | 0.0566 | 0.0658 | 0.0743 | 0.0832 | 0.0913 | 0.1001 | 0.109
c1 = 0.009639 | 0.0619 | 0.0714 | 0.0804 | 0.0896 | 0.0982 | 0.108 | 0.117
c1 = 0.0105 | 0.0661 | 0.0761 | 0.0846 | 0.0945 | 0.1035 | 0.1136 | 0.1242
c1 = 0.01135 | 0.0702 | 0.0797 | 0.0883 | 0.0984 | 0.108 | 0.118 | 0.13
c1 = 0.01218 | 0.0731 | 0.0825 | 0.0919 | 0.1018 | 0.1117 | 0.1228 | 0.1348
c1 = 0.01319 | 0.0759 | 0.0851 | 0.0953 | 0.106 | 0.116 | 0.128 | 0.1405
c1 = 0.01419 | 0.0783 | 0.0883 | 0.0985 | 0.109 | 0.1203 | 0.1325 | 0.146
c1 = 0.01516 | 0.0806 | 0.0906 | 0.1015 | 0.1128 | 0.1242 | 0.137 | 0.1512
c1 = 0.01657 | 0.0837 | 0.0942 | 0.106 | 0.118 | 0.13 | 0.1433 | 0.157
c1 = 0.01794 | 0.0866 | 0.0976 | 0.11 | 0.1224 | 0.135 | 0.149 | 0.165
c1 = 0.01927 | 0.0895 | 0.1009 | 0.1137 | 0.127 | 0.1404 | 0.155 | 0.1719
c1 = 0.02055 | 0.0921 | 0.1041 | 0.117 | 0.1312 | 0.145 | 0.161 | 0.178
c1 = 0.02179 | 0.0947 | 0.107 | 0.1211 | 0.135 | 0.15 | 0.166 | 0.1843
c1 = 0.023 | 0.0973 | 0.1101 | 0.1245 | 0.139 | 0.1545 | 0.1709 | 0.1906
c1 = 0.02417 | 0.0996 | 0.113 | 0.128 | 0.1433 | 0.159 | 0.175 | 0.196

— the NIST ThermoML archive (doi:10.1021/je100598x)
